Where two headings read alike, the source gives them in different places.
Key:
[1] = test system: Staphylococcus aureus FDA 209P; assay: Minimum inhibitory concentration, serial dilution on nutrient agar; type: cell-based; conditions: FDA209P, read-out: Minimum Inhibitory Concentration
[2] = test system: Pseudomonas aeruginosa No.12; assay: as above; type: cell-based; conditions: read-out: Minimum Inhibitory Concentration
[3] = test system: Bacillus anthracis; assay: microbe, parasite or virus in culture; type: cell-based; conditions: 18 h, read-out: Minimum Inhibitory Concentration
[4] = test system: Escherichia coli K-12; assay: Minimum inhibitory concentration, serial dilution on nutrient agar; type: cell-based; conditions: K12, 37°C, 18 hours, read-out: Minimum Inhibitory Concentration
[5] = test system: Escherichia coli JR66/W677; assay: as above; type: cell-based; conditions: read-out: Minimum Inhibitory Concentration
[6] = test system: Klebsiella pneumoniae 22 No. 3038; assay: as above; type: cell-based; conditions: 22NO.3038, 18 h, read-out: Minimum Inhibitory Concentration
[7] = test system: Escherichia coli K-12 ML 1410; assay: as above; type: cell-based; conditions: read-out: Minimum Inhibitory Concentration
[8] = test system: Escherichia coli LA290 R55; assay: as above; type: cell-based; conditions: LA290R55, 18 h, read-out: Minimum Inhibitory Concentration
[9] = test system: Escherichia coli K-12 ML 1629; assay: as above; type: cell-based; conditions: K12ML1629, 18 h, read-out: Minimum Inhibitory Concentration
[10] = acute toxicity upon intravenous injection in mice; type: in vivo; conditions: mouse, in vivo; intravenous injection, mice
[11] = test system: Proteus vulgaris OX 19; assay: Minimum inhibitory concentration, serial dilution on nutrient agar; type: cell-based; conditions: OX19, 37°C, 18 hours, read-out: Minimum Inhibitory Concentration
[12] = test system: Escherichia coli LA290 R64; assay: as above; type: cell-based; conditions: LA290R64, 18 h, read-out: Minimum Inhibitory Concentration
[13] = test system: Klebsiella pneumoniae PCI 602; assay: as above; type: cell-based; conditions: PCI602, 37°C, 18 hours, read-out: Minimum Inhibitory Concentration
[14] = test system: Escherichia coli W677; assay: as above; type: cell-based; conditions: W677, 37°C, 18 hours, read-out: Minimum Inhibitory Concentration
[15] = test system: Staphylococcus aureus Terajima; assay: as above; type: cell-based; conditions: 37°C, 18 hours, read-out: Minimum Inhibitory Concentration
[16] = test system: Escherichia coli NIHJ; assay: as above; type: cell-based; conditions: 18 h, read-out: Minimum Inhibitory Concentration
[17] = test system: Escherichia coli LA290 R56; assay: as above; type: cell-based; conditions: LA290R56, 18 h, read-out: Minimum Inhibitory Concentration
[18] = test system: Pseudomonas aeruginosa TI-13; assay: as above; type: cell-based; conditions: TI13, 37°C, 18 hours
Method: (§1) The minimum inhibitory concentrations (mcg/ml) of 1-N-DL-isoserylkanamycin,1-N-DL-isoserylkanamycin B and 1-N-DL-isoseryl-3',4'-dideoxykanamycin B against various microorganisms were determined according to the serial dilution method using nutrient agar medium at 37°C, the estimation being effected after 18 hours incubation. For comparison purposes, the minimum inhibitory concentrations of kanamycin, kanamycin B and 3',4'-dideoxykanamycin B were also determined in the same manner and under the same conditions as mentioned above.
(§2) The antibacterial spectra of 1-N-DL-isoseryl-kanamycin (abbreviated as 1-IS-KM), 1-N-DL-isoseryl-kanamycin B (abbreviated as 1-IS-KMB) and 1-N-DL-isoseryl-3',4'-dideoxykanamycin B (abbreviated as 1-IS-DKB) are shown in the following table together with those of kanamycin (abbreviatedas KM), kanamycin B (abbreviated as KMB) and 3',4'-dideoxykanamycin B (abbreviated as DKB).

[19] = test system: Pseudomonas aeruginosa A3; assay: as above; type: cell-based; conditions: 37°C, 18 hours
Method: as §1, §2

[20] = test system: Shigella flexneri 4b JS 11811; assay: as above; type: cell-based; conditions: 4BJS11811, 37°C, 18 hours
Method: as §1, §2

[21] = test system: Shigella sonnei JS 11746; assay: as above; type: cell-based; conditions: JS11746, 37°C, 18 hours
Method: as §1, §2

[22] = test system: Escherichia coli K-12 ML 1630; assay: as above; type: cell-based; conditions: K12ML1630, 37°C, 18 hours
Method: as §1, §2

[23] = test system: Shigella dysenteriae JS 11910; assay: as above; type: cell-based; conditions: JS11910, 18 h, read-out: Minimum Inhibitory Concentration
[24] = test system: gram-negative and gram-positive bacteria; assay: antibacterial activity, in words; type: cell-based; conditions: gram-negative and gram-positive bacteria sensitive to kanamycins
Method: as §1, §2

[25] = test system: Sarcina lutea PCI 1001; assay: Minimum inhibitory concentration, serial dilution on nutrient agar; type: cell-based; conditions: Micrococcus luteus, read-out: Minimum Inhibitory Concentration
[26] = test system: drug-resistant strains of Escherichia coli and Pseudomonas aeruginosa; assay: antibacterial activity against drug-resistant strains, in words; type: cell-based
[27] = test system: Bacillus subtilis PCI 219; assay: Minimum inhibitory concentration, serial dilution on nutrient agar; type: cell-based; conditions: PCI219, 37°C, 18 hours, read-out: Minimum Inhibitory Concentration
[28] = test system: Staphylococcus aureus Smith; assay: as above; type: cell-based; conditions: 37°C, 18 hours, read-out: Minimum Inhibitory Concentration
[29] = test system: Bacillus cereus ATCC 10702; assay: as above; type: cell-based; conditions: ATCC10702, 37°C, 18 hours, read-out: Minimum Inhibitory Concentration
[30] = test system: Salmonella typhosa T-63; assay: as above; type: cell-based; conditions: Salmonella enterica, 18 h, read-out: Minimum Inhibitory Concentration
[31] = test system: Pseudomonas aeruginosa 99; assay: as above; type: cell-based; conditions: read-out: Minimum Inhibitory Concentration
[32] = test system: Salmonella enteritidis 1891; assay: as above; type: cell-based; conditions: Salmonella enterica, 37°C, 18 hours, read-out: Minimum Inhibitory Concentration
[33] = test system: Corynebacterium bovis 1810; assay: as above; type: cell-based; conditions: read-out: Minimum Inhibitory Concentration
[34] = test system: Bacillus subtilis NRRL B-558; assay: as above; type: cell-based; conditions: NRRLB558, 37°C, 18 hours, read-out: Minimum Inhibitory Concentration
[35] = test system: Escherichia coli K-12 ML 1410 R81; assay: as above; type: cell-based; conditions: 18 h, read-out: Minimum Inhibitory Concentration
[36] = test system: Mycobacterium smegmatis ATCC 607; assay: as above; type: cell-based; conditions: Mycolicibacterium smegmatis, ATCC607; 37°C, 18 hours; read-out: Minimum Inhibitory Concentration
[37] = test system: Pseudomonas aeruginosa GN315; assay: as above; type: cell-based; conditions: GN315, 37°C, 18 hours, read-out: Minimum Inhibitory Concentration

Row | SMILES | MIC [3] [µg/mL] | MIC [4] [µg/mL] | MIC [6] [µg/mL] | MIC [8] [µg/mL] | MIC [9] [µg/mL] | LD50 [10] [mg/kg] | MIC [11] [µg/mL] | MIC [12] [µg/mL] | MIC [13] [µg/mL] | MIC [14] [µg/mL] | MIC [15] [µg/mL] | MIC [16] [µg/mL] | MIC [17] [µg/mL] | MIC [18] [µg/mL] | MIC [19] [µg/mL] | MIC [20] [µg/mL] | MIC [21] [µg/mL] | MIC [22] [µg/mL] | MIC [23] [µg/mL] | antibacterial activity [24] | other results
1 | NCC(O)C(=O)N[C@@H]1C[C@H](N)[C@@H](O[C@H]2O[C@H](CN)[C@@H](O)[C@H](O)[C@H]2O)[C@H](O)[C@H]1O[C@H]1O[C@H](CO)[C@@H](O)[C@H](N)[C@H]1O (mixture of isomers) [1-IS-KM, 1-N-DL-isoserylkanamycin] | < 0.2 | 0.78 | 1.56 | 1.56 | 1.56 | > 200 | 0.39 | 0.78 | 0.39 | 0.78 | < 0.2 | 1.56 | 0.78 | 3.13 | 3.13 | 3.13 | 1.56 | 1.56 | 3.13 | high antibacterial activity | MIC ([1]; 37°C, 18 hours): 0.78 µg/mL; MIC ([2]; NO.12, 37°C, 18 hours): 0.78 µg/mL; MIC ([5]; JR66/W677, 18 h): 3.13 µg/mL; MIC ([7]; K12ML1410, 18 h): 1.56 µg/mL; MIC ([25]; PCI1001, 37°C, 18 hours): 3.12 µg/mL; antibacterial activity [26]: high antibacterial activity; MIC [27]: < 0.2 µg/mL; MIC [28]: 0.2 µg/mL; MIC [29]: 0.78 µg/mL; MIC [30]: 0.78 µg/mL; MIC ([31]; Pseudomonas aeruginosa, 99, 37°C, 18 hours): 6.25 µg/mL; MIC [32]: 0.78 µg/mL; MIC ([33]; Corynebacterium bovis, 1810, 18 h): 1.56 µg/mL; MIC [34]: < 0.2 µg/mL; MIC [35]: 1.56 µg/mL; MIC [36]: 0.39 µg/mL; MIC [37]: > 100 µg/mL
2 | NCC(O)C(=O)N[C@@H]1C[C@H](N)[C@@H](O[C@H]2O[C@H](CN)[C@@H](O)[C@H](O)[C@H]2N)[C@H](O)[C@H]1O[C@H]1O[C@H](CO)[C@@H](O)[C@H](N)[C@H]1O (mixture of isomers) [1-IS-KMB, 1-N-DL-isoserylkanamycin B] | < 0.2 | 1.56 | 6.25 | 1.56 | 3.13 | > 100 | 0.78 | 0.78 | 0.78 | 0.78 | < 0.2 | 3.13 | 0.78 | 6.25 | 6.25 | 3.13 | 6.25 | 3.13 | 6.25 | high antibacterial activity | MIC ([1]; 18 h): 1.56 µg/mL; MIC ([2]; NO.12, 18 h): 6.25 µg/mL; MIC ([5]; JR66/W677, 37°C, 18 hours): 12.5 µg/mL; MIC ([7]; K12ML1410, 37°C, 18 hours): 1.56 µg/mL; MIC ([25]; PCI1001, 18 h): 6.25 µg/mL; antibacterial activity [26]: high antibacterial activity; MIC [27]: < 0.2 µg/mL; MIC [28]: < 0.2 µg/mL; MIC [29]: 1.56 µg/mL; MIC [30]: 0.78 µg/mL; MIC ([31]; Pseudomonas aeruginosa, 99, 18 h): 6.25 µg/mL; MIC [32]: 0.78 µg/mL; MIC ([33]; Corynebacterium bovis, 1810, 37°C, 18 hours): 1.56 µg/mL; MIC [34]: < 0.2 µg/mL; MIC [35]: 3.13 µg/mL; MIC [36]: 0.78 µg/mL; MIC [37]: 50 µg/mL

Reference: US3939143A, “1-N-isoserylkanamycins and the production thereof” (Zaidan Hojin Biseibutsu Kagaku Kenkyu Kai, priority 1973, dated 1976)
